Reference: article PMC10507961, “Development of an amoxicillin-radix scutellaria extract formulation and evaluation of its pharmacokinetics in pigs” (BMC Veterinary Research, 2023)
≈ marks a conversion by molar mass, not a printed value.

Tests used:
[1] = tested on: Streptococcus; experiment: Antibacterial susceptibility test (MIC), Streptococcus; assay type: cell-based; conditions: 16 strains, MIC range
Protocol: (§1) Fifteen strains of E. coli, 16 strains of […], and 16 strains of […] were provided by the Department of Pharmacology and Toxicology of China Agricultural University. The minimum inhibitory concentration (MIC) of AMO and RSE was tested in the bacteria mentioned above; this method was previously reported by Jiarong Cao, et al.. Amoxicillin or baicalin was added to a sterile 96-well plate with multiple dilutions from low to high concentrations from the first well to the tenth well, with 100 μL per well. 100 μL of bacterial solution was added to a concentration of 1 × 10^6 CFU/mL. 200 μL of the bacterial solution was added to the 11th well as positive control, and 200 μL of broth was added to the 12th well as a negative control. The MIC test of quality control bacteria was carried out at the same time in each test. The 96-well plate was placed in a 37 ℃ incubator for 18 to 24 h, and the results were observed and recorded. The experiment was repeated three times.

[2] = tested on: Escherichia coli; experiment: Antibacterial susceptibility test (MIC), E. coli; assay type: cell-based; conditions: 15 strains, MIC range, read-out: AMO MIC
Protocol: as §1

[3] = tested on: Salmonella; experiment: Antibacterial susceptibility test (MIC), Salmonella; assay type: cell-based; conditions: read-out: AMO MIC
Protocol: The minimum inhibitory concentration (MIC) of AMO and RSE was tested in the bacteria mentioned above; this method was previously reported by Jiarong Cao, et al..
Amoxicillin or baicalin was added to a sterile 96-well plate with multiple dilutions from low to high concentrations from the first well to the tenth well, with 100 μL per well. 100 μL of bacterial solution was added to a concentration of 1 × 10^6 CFU/mL. 200 μL of the bacterial solution was added to the 11th well as positive control, and 200 μL of broth was added to the 12th well as a negative control. The MIC test of quality control bacteria was carried out at the same time in each test. The 96-well plate was placed in a 37 ℃ incubator for 18 to 24 h, and the results were observed and recorded. The experiment was repeated three times.

[4] = Second pharmacokinetic study in pigs (three doses of AMO-RSE powder); assay type: in vivo; conditions: p.o. AMO-RSE powder, tested dose range (AMO 10–30 mg/kg, BCL 5–15 mg/kg)
Excerpt: Twelve healthy Landrace × Large White hybrid pigs, half male and half female, with an average body weight of 15 ± 3.2 kg (range 11–18 kg), were randomly divided into two groups (three male and three female pigs in each group) for pharmacokinetics experiments and were purchased from JuCong agriculture, Nanning, Guangxi. Commercial feed and water free of antibiotics and target drugs were freely available to the pigs housed individually in 12 pig pens. After the experiment, the pigs were released.
Pig jugular vein blood was collected in an anticoagulant tube, and centrifuged at 3000 rpm for 10 min, and the separated plasma was stored at -20 ℃. The plasma sample was placed at room temperature for natural thawing, and it was mixed evenly with a vortex, 1 mL of the plasma sample was accurately measure and placed it in a 10 mL centrifuge tube with a cover. […]
Using HPLC to measured the content of AMO. […] The limits of detection and quantification of amoxicillin in the plasma were 0.03 and 0.1 µg/ml, respectively.
The content of BCL were measured using HPLC. […] The limits of detection and quantification of […] in the plasma were 0.03 and 0.1 µg/ml, respectively. […]
The concentrations of AMO and BCL in plasma at each time point are expressed as the arithmetic mean ± SD. The pharmacokinetic parameters were calculated by using noncompartmental analysis based on statistical moment theory. […]

[5] = Angle of repose test; assay type: physicochemical; conditions: fixed funnel method
Protocol: The fixed funnel method was used to measure the angle of repose. A funnel was fixed at a height of 3 cm above coordinate paper (the paper was placed on a horizontal table), and materials were added through the funnel until the top of the accumulated cone came into contact with the bottom of the funnel. The cone diameter was measured, and the angle of repose was calculated with the ratio of the distance between the funnel and paper to the cone radius as the tangent.

[6] = Moisture absorption percentage test; assay type: physicochemical
Protocol: Sample dried to a constant weight (1 g) was placed in a 5 mL flat weighing bottle, shaken gently to evenly distribute the sample, weighed accurately, put it in a dryer containing supersaturated sodium chloride solution (the weighing bottle is opened), and weighed after 24 h (n = 3). The moisture absorption percentage was calculated according to the following formula: Moistureabsorptionpercentage(%)=weightaftermoistureabsorption-weightbeforemoistureabsorption/weightbeforemoistureabsorption×100%

angle of repose [5] [°] | moisture absorption percentage, rank among five excipients [6] | Compound | AMO MIC [1] [µg/mL] | MIC ([1]; read-out: AMO MIC) [µg/mL] | MIC [2] [µg/mL] | MIC [3] [µg/mL] | dose linearity of pharmacokinetics [4]
– | – | CC1(C)S[C@@H]2[C@H](NC(=O)[C@H](N)c3ccc(O)cc3)C(=O)N2[C@H]1C(=O)O [AMO, Amoxicillin] | 1 to 128 | 0.5 to 64 (≈ 1.37 to 175 µM) | 1 to 8 (≈ 2.74 to 21.9 µM) | 0.25 to 32 (≈ 0.684 to 87.6 µM) | linear pharmacokinetic properties
– | – | O=C(O)[C@H]1O[C@@H](Oc2cc3oc(-c4ccccc4)cc(=O)c3c(O)c2O)[C@H](O)[C@@H](O)[C@@H]1O [BCL, baicalin] | – | – | – | – | linear pharmacokinetic properties
41.44 | lowest | OC[C@H]1OC(O)[C@H](O)[C@@H](O)[C@@H]1O (some centres unmarked) [glucose] | – | – | – | – | –
